Read-outs that look alike come from different tables or passages of the source.
Experiments:
[1] = tested on: skin graft; conditions: cited from earlier work
[2] = molecular target: T1, eIF4A-eIF4G (Homo sapiens, UniProt P60842); experiment: 6XHis-eIF4AI pulldown, eIF4A-eIF4G interaction; type: binding; conditions: HeLa lysate; PatA at 100 μM
T1 construct: The entire ORF of human eIF4AI was ligated in-frame into the BamHI and HindIII sites of the pET-28a expression vector; made in house; host or cells: bait from E. coli BL21(DE3); eIF4G endogenous in HeLa lysate
Experimental: 6XHis-eIF4AI pulldown, Co-immunoprecipitation, and m^7GTP-Sepharose pulldown. For 6XHis-eIF4AI pulldowns, HeLa lysates were prepared as described above. Equal aliquots (200 μl) of lysate were incubated with PatA analogs or DMSO and 8.5 μg of 6XHis-eIF4AI overnight at 4° C., followed by addition of Ni-NTA resin for 1 h, then resin was washed with 3 ml buffer, and boiled in SDS-PAGE loading buffer followed by SDS-PAGE and immunoblotting with indicated antibodies. For co-immunoprecipitation, 293T cells with vector control or pcDNA3-Flag-4B lysates were prepared by pipetting in: 20 mM HEPES, pH 7.4, 100 mM KCl, 0.5% Triton-X-100, 20% glycerol, protease inhibitor and 15 μg/ml RNAse A followed by clearing at 13 000 g (10 min). For DMDA-PatA treated samples, lysis and wash buffers also contained 100 nM DMDA-PatA. Anti-Flag antibody was incubated overnight at 4° C., followed by addition of Protein G beads for 4 h. Beads were washed 3× with 500 μl buffer, boiled in SDS-PAGE loading buffer followed by SDS-PAGE and immunoblotting. m^7GTP-Sepharose was performed as described (Yoder-Hill et al., 1993) with modifications. 30 μl RRL was incubated with DMSO or DMDA-PatA at room temperature for 30 min, diluted with buffer supplemented with DMSO or DMDA-PatA (20 nM), then combined with 50 μl beads for 3 h at 4° C. followed by 4 washes with 1 ml buffer. […]

T1 sequence (P60842 whole entry): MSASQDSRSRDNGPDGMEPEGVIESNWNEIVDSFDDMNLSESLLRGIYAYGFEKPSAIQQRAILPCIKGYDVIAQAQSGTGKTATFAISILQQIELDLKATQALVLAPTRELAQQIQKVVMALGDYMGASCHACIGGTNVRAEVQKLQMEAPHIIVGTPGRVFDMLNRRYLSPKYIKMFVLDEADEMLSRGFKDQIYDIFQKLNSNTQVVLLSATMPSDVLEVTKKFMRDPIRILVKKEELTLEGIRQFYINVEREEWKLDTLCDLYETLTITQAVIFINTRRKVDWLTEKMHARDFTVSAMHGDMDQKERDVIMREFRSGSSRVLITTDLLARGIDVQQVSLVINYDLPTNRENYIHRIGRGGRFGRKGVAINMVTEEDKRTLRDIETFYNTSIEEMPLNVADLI

For `CC(/C=C/C(C)=C/[C@@H]1Cc2nc(cs2)[C@@H](C)C[C@@H](N)CC(=O)O[C@@H](C)C/C(C)=C/C=C\C(=O)O1)=C\CN(C)C` [Pat A (1), Pateamine A], the “activity in skin graft rejection assay” value ([1]; all doses) is listed as “All doses were active”, the toxicity ([1]; at high doses) is listed as 17% and the “survival period of the skin graft” value ([1]; mouse skin graft rejection) is listed as 15 days. The toxicity ([1]; other dose levels) was “no toxicity” and the “effect on eIF4A-eIF4G interaction” value [2] was “disrupted”.
